Structures can show the parent of a compound that is named as a salt.

As usually defined, the IC50 is the concentration needed to halve the response being measured.

This experiment deals with T1, HIV integrase (Human immunodeficiency virus type 1 group M subtype B, UniProt P12497, F1332H).
T1 construct: HIV integrase full length gene; made in house; host or cells: Escherichia coli BL21(DE3), plasmid pET21a-INH
In words: Determination of enzyme (HIV integrase) inhibitory activity. The settings on record: recombinant HIV integrase (F185H), strand transfer ELISA, absorbance at 450 nm. Format: biochemical. Summed up: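 Full-length integrase with F185H, expressed in E. coli and purified, was reacted for 60 min at 37 °C with compound and biotinylated donor DNA bound to streptavidin plates. Target DNA was added for 10 min, then anti-digoxigenin-peroxidase detection at A450; IC50 from % inhibition versus enzyme-free blank.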
A general note: In an ELISA, binding on a coated surface is turned into a signal by an enzyme label.
Regarding `O=c1c(-c2cncs2)cn2ccn(Cc3cccc(Cl)c3)c(=O)c2c1O` [Example 218, 2-(3-chlorobenzyl)-9-hydroxy-7-(thiazol-5-yl)-2H-pyrido[1,2-a]pyrazine-1,8-dione hydrochloride], the IC50 is less than 10 nM. Take `CS(=O)(=O)Oc1c(=O)c(Br)cn2ccn(Cc3cccc(Cl)c3)c(=O)c12` [Example 109, 7-bromo-2-(3-chlorobenzyl)-1,8-dioxo-1,8-dihydro-2H-pyrido[1,2-a]pyrazin-9-yl methanesulfonate]: the IC50 lay within 100 to 1000 nM. Turning to `O=C1c2c(O)c(=O)c(-c3ccccn3)cn2CCN1CCCc1c(F)cccc1Cl` [Example 329, 2-[3-(2-chloro-6-fluorophenyl)propyl]-9-hydroxy-7-(pyridin-2-yl)-3,4-dihydro-2H-pyrido[1,2-a]pyrazine-1,8-dione hydrochloride], the half-maximal inhibitory concentration (IC50) lay in the range of 10 to 100 nM.

With `CC(O)c1cn(Cc2cccc(Cl)c2)c(=O)c2c(O)c(=O)ccn12` (stereo not shown) [Example 103, 2-(3-chlorobenzyl)-9-hydroxy-4-(1-hydroxyethyl)-2H-pyrido[1,2-a]pyrazine-1,8-dione], the IC50 was 10 to 100 nM. With `O=c1ccn2ccn(Cc3ccc(Br)cc3)c(=O)c2c1O` [Example 157, 2-(4-bromobenzyl)-9-hydroxy-2H-pyrido[1,2-a]pyrazine-1,8-dione hydrochloride], the IC50 is 10 to 100 nM. For the compound `COc1ccc(-c2cn3ccn(Cc4cccc(Cl)c4)c(=O)c3c(O)c2=O)cc1` [Example 133, 2-(3-chlorobenzyl)-9-hydroxy-7-(4-methoxyphenyl)-2H-pyrido[1,2-a]pyrazine-1,8-dione hydrochloride], the IC50 is less than 10 nM. On to `O=C(Nc1cn2ccn(Cc3cccc(Cl)c3)c(=O)c2c(O)c1=O)c1ccco1` [Example 288, N-[2-(3-chlorobenzyl)-9-hydroxy-1,8-dioxo-1,8-dihydro-2H-pyrido[1,2-a]pyrazin-7-yl]furan-2-carboxamide], for which the IC50 is less than 10 nM. In the case of `CC(=O)CNC(=O)c1cn2ccn(Cc3cccc(Cl)c3)c(=O)c2c(O)c1=O` [Example 199, N-(2-oxopropyl)-2-(3-chlorobenzyl)-9-hydroxy-1,8-dioxo-1,8-dihydro-2H-pyrido[1,2-a]pyrazine-7-carboxamide], the IC50 fell in the range of 10 to 100 nM. Regarding `CNC(=O)c1cc(F)ccc1CCCN1CCn2cc(-c3nccs3)c(=O)c(O)c2C1=O` [Example 335, 5-fluoro-2-{3-[9-hydroxy-1,8-dioxo-7-(thiazol-2-yl)-1,3,4,8-tetrahydro-pyrido[1,2-a]pyrazin-2-yl]propyl)-N-methylbenzamide], the IC50 fell in the range of 10 to 100 nM. On to `CNC(=O)c1cc(F)ccc1CN1CCn2cc(-c3nccs3)c(=O)c(O)c2C1=O` [Example 301, 5-fluoro-2-[9-hydroxy-1,8-dioxo-7-(thiazol-2-yl)-1,3,4,8-tetrahydro-pyrido[1,2-a]pyrazin-2-ylmethyl]-N-methylbenzamide], for which the IC50 was in the range of 100 to 1000 nM. With `CC(=O)C(=O)Nc1cn2ccn(Cc3cccc(Cl)c3)c(=O)c2c(O)c1=O` [Example 265, N-[2-(3-chlorobenzyl)-9-hydroxy-1,8-dioxo-1,8-dihydro-2H-pyrido[1,2-a]pyrazin-7-yl]-2-oxopropionamide], the half-inhibitory concentration (IC50) is less than 10 nM. Turning to `CC(C)COCc1cc(=O)c(O)c2n1CCN(Cc1ccc(Cl)c(Cl)c1)C2=O` [Example 39, 2-(3,4-dichlorobenzyl)-9-hydroxy-6-isobutoxymethyl-3,4-dihydro-2H-pyrido[1,2-a]pyrazine-1,8-dione], the IC50 lay in the range of 10 to 100 nM. In the case of `CC(C)(C)C(=O)c1cn2ccn(Cc3cccc(F)c3)c(=O)c2c(O)c1=O` [Example 376, 7-(2,2-dimethylpropionyl)-2-(3-fluorobenzyl)-9-hydroxy-2H-pyrido[1,2-a]pyrazine-1,8-dione hydrochloride], the IC50 was in the range of 10 to 100 nM.

`CC(C)C(O)c1cn(Cc2ccc(Cl)c(Cl)c2)c(=O)c2c(O)c(=O)ccn12` (stereo not shown) [Example 432, 2-(3,4-dichlorobenzyl)-9-hydroxy-4-(1-hydroxy-2-methylpropyl)-2H-pyrido[1,2-a]pyrazine-1,8-dione]: the concentration for half-maximal inhibition (IC50) was less than 10 nM. `O=c1c(-c2ccccn2)cn2ccn(Cc3ccc(F)cc3)c(=O)c2c1O` [Example 306, 2-(4-fluorobenzyl)-9-hydroxy-7-(pyridin-2-yl)-2H-pyrido[1,2-a]pyrazine-1,8-dione trifluoroacetate]: the IC50 fell in the range of 10 to 100 nM. In the case of `CC(C)S(=O)(=O)Nc1cn2ccn(Cc3ccc(F)cc3)c(=O)c2c(O)c1=O` [Example 319, N-[2-(4-fluorobenzyl)-9-hydroxy-1,8-dioxo-1,8-dihydro-2H-pyrido[1,2-a]pyrazin-7-yl]-2-propanesulfonamide], the IC50 lay in the range of 10 to 100 nM.

On to `CC(C)C(=O)Nc1cn2ccn(Cc3cccc(Cl)c3)c(=O)c2c(O)c1=O` [Example 239, N-[2-(3-chlorobenzyl)-9-hydroxy-1,8-dioxo-1,8-dihydro-2H-pyrido[1,2-a]pyrazin-7-yl]isobutyramide], for which the IC50 is less than 10 nM.

Consider `CN(Cc1ccccc1)C(=O)c1cn2c(c(O)c1=O)C(=O)N(Cc1cccc(Cl)c1)CC2` [Example 370, N-benzyl-N-methyl-2-(3-chlorobenzyl)-9-hydroxy-1,8-dioxo-1,3,4,8-tetrahydro-2H-pyrido[1,2-a]pyrazine-7-carboxamide hydrochloride], for which the IC50 was less than 10 nM. Take `O=C1c2c(O)c(=O)c(-c3nccs3)cn2CCN1CCCc1ccccc1` [Example 316, 9-hydroxy-2-(3-phenylpropyl)-7-(thiazol-2-yl)-3,4-dihydro-2H-pyrido[1,2-a]pyrazine-1,8-dione hydrochloride]: the concentration for half-maximal inhibition (IC50) fell in the range of 10 to 100 nM. Under `O=C(NCc1ccc(F)cc1)c1cn2c(c(O)c1=O)C(=O)N(Cc1ccc(F)cc1)CC2` [Example 378, N-(4-fluorobenzyl)-2-(4-fluorobenzyl)-9-hydroxy-1,8-dioxo-1,3,4,8-tetrahydro-2H-pyrido[1,2-a]pyrazine-7-carboxamide] stands less than 10 nM.

`O=c1c(-c2ccco2)cn2ccn(Cc3cccc(Cl)c3)c(=O)c2c1O` [Example 120, 2-(3-chlorobenzyl)-7-(furan-2-yl)-9-hydroxy-2H-pyrido[1,2-a]pyrazine-1,8-dione hydrochloride]: the IC50 is less than 10 nM.

As to `CCCCC1CN(Cc2ccc(Cl)c(Cl)c2)C(=O)c2c(O)c(=O)ccn21` (stereo not shown) [Example 16, 4-butyl-2-(3,4-dichlorobenzyl)-9-hydroxy-3,4-dihydro-2H-pyrido[1,2-a]pyrazine-1,8-dione], the IC50 was 10 to 100 nM.

As for `O=c1ccn2ccn(Cc3ccc(F)c(Cl)c3)c(=O)c2c1O` [Example 90, 2-(3-chloro-4-fluorobenzyl)-9-hydroxy-2H-pyrido[1,2-a]pyrazine-1,8-dione hydrochloride], the IC50 was less than 10 nM. With `O=C(NCCO)c1cn2ccn(Cc3cccc(Cl)c3)c(=O)c2c(O)c1=O` [Example 178, N-(2-hydroxyethyl)-2-(3-chlorobenzyl)-9-hydroxy-1,8-dioxo-1,8-dihydro-2H-pyrido[1,2-a]pyrazine-7-carboxamide] the figure was 10 to 100 nM; with `CC(=O)Nc1cn2ccn(Cc3ccc(F)cc3)c(=O)c2c(O)c1=O` [Example 303, N-[2-(4-fluorobenzyl)-9-hydroxy-1,8-dioxo-1,8-dihydro-2H-pyrido[1,2-a]pyrazin-7-yl]acetamide], 10 to 100 nM; with `CC(C)CNC(=O)c1cn2ccn(Cc3cccc(Cl)c3)c(=O)c2c(O)c1=O` [Example 173, N-isobutyl-2-(3-chlorobenzyl)-9-hydroxy-1,8-dioxo-1,8-dihydro-2H-pyrido[1,2-a]pyrazine-7-carboxamide], 10 to 100 nM. For `O=C(Nc1cn2ccn(Cc3ccc(F)cc3)c(=O)c2c(O)c1=O)c1cccnc1` [Example 320, N-[2-(4-fluorobenzyl)-9-hydroxy-1,8-dioxo-1,8-dihydro-2H-pyrido[1,2-a]pyrazin-7-yl]nicotinamide trifluoroacetate], the IC50 was less than 10 nM. Under `COCC(C)(C)C(=O)c1cn2ccn(Cc3ccc(F)cc3)c(=O)c2c(O)c1=O` [Example 425, 2-(4-fluorobenzyl)-9-hydroxy-7-(3-methoxy-2,2-dimethylpropionyl)-2H-pyrido[1,2-a]pyrazine-1,8-dione hydrochloride] stands less than 10 nM; under `CC(C)C(=O)c1cn2c(c(O)c1=O)C(=O)N(Cc1ccc(F)cc1)CC2` [Example 385, 2-(4-fluorobenzyl)-9-hydroxy-7-isobutyryl-3,4-dihydro-2H-pyrido[1,2-a]pyrazine-1,8-dione], 10 to 100 nM.

Consider `O=c1c(-c2cccc(Cl)c2)cn2ccn(Cc3cccc(Cl)c3)c(=O)c2c1O` [Example 112, 2-(3-chlorobenzyl)-7-(3-chlorophenyl)-9-hydroxy-2H-pyrido[1,2-a]pyrazine-1,8-dione hydrochloride], for which the IC50 lay in the range of 10 to 100 nM.

For `O=C1c2c(O)c(=O)c(NS(=O)(=O)c3ccccc3)cn2CCN1Cc1ccc(F)c(Cl)c1` [Example 418, N-[2-(3-chloro-4-fluorobenzyl)-9-hydroxy-1,8-dioxo-1,3,4,8-tetrahydro-2H-pyrido[1,2-a]pyrazin-7-yl]benzenesulfonamide], the IC50 is 10 to 100 nM.

On to `O=C1c2c(O)c(=O)c(-c3ccncc3)cn2CCN1Cc1cccc(Cl)c1F` [Example 340, 2-(3-chloro-2-fluorobenzyl)-9-hydroxy-7-(pyridin-4-yl)-3,4-dihydro-2H-pyrido[1,2-a]pyrazine-1,8-dione hydrochloride], for which the IC50 is less than 10 nM. With `O=C1c2c(O)c(=O)c(-c3ccccn3)cn2CCN1Cc1ccc(F)c(Cl)c1` [Example 327, 2-(3-chloro-4-fluorobenzyl)-9-hydroxy-7-(pyridin-2-yl)-3,4-dihydro-2H-pyrido[1,2-a]pyrazine-1,8-dione hydrochloride], the IC50 is less than 10 nM. For the compound `CC(C)(C)C(=O)c1cn2c(c(O)c1=O)C(=O)N(Cc1ccc(Cl)c(Cl)c1)CC2` [Example 238, 2-(3,4-dichlorobenzyl)-7-(2,2-dimethylpropionyl)-9-hydroxy-3,4-dihydro-2H-pyrido[1,2-a]pyrazine-1,8-dione], the IC50 is less than 10 nM.

For the origin of these results see patent US7211572B2 (Japan Tobacco Inc., priority 2003, dated 2007).
